The test system of test [1] is PBMC from 32 patients with chronic HCV. The experiment in a line: T cell proliferation assay ((3H)-thymidine incorporation, stimulation index) with PBMC of chronic HCV patients. The format is cell-based, human. To be noted: for lymphoproliferative response (LPR) to peptide pools and single peptides: IFN responder, LPR to pools 2 and/or 3.
For test [2], the system named is PBMC's from 18 healthy control subjects. The experiment in a line: T cell proliferation assay with PBMC of healthy control subjects. The test is classed as cell-based, human. As to conditions: 17 control subjects, 23 proliferation assays. How it is done: As controls for the specificity of the lymphoproliferative responses, 18 healthy individuals aged 25-58 years (mean 38.6), 10 males and 8 females were selected. These subjects were negative for HCV antibodies and HCV-RNA.
The medium used for all cell cultures consisted of RPMI 1640 supplemented with 25 mM HEPES, 2 mM L-glutamine, 50 U/ml penicillin and 50 μg/ml streptomycin (all from Gibco Europe, Gent, Belgium), 5×10^−5 M 2-mercaptoethanol (Sigma, St. Louis, Mo.) and 10% heat-inactivated pooled human AB serum. This AB serum was obtained from healthy blood donors with blood group AB^+ and was only used when antibodies to HCV and HCV-RNA were absent. This “complemented” RPMI 1640 medium will hereafter be designated “complete medium”.
PBMC were isolated from heparinized venous blood by isopycnic density centrifugation on Ficoll Hypaque (Lymphoprep, Nyegaard, Denmark) and suspended in complete medium. […] PBMC in 200 μl of complete medium were cultured in 96 well round-bottomed microplates (Falcon Plastics) in the absence (unstimulated controls) or presence of varying concentrations of antigens for 5 days at 37° C. in an atmosphere of 5% CO2 in air. 0.5 μCi (^3H)-thymidine was then added to each well and 16 to 20 h later the cultures were harvested onto glass fiber filters using a multichannel cell harvester (PHD, Cambridge, Mass.) to measure the incorporation of (^3H)-thymidine by liquid scintillation counting in an LKB-Wallac 8100 counter (LKB, Bromma, Sweden). Results are expressed as stimulation index (SI; mean cpm of antigen-stimulated cultures/mean cpm of control cultures). Proliferation was considered positive when stimulation index was >3. In some figures the results are expressed as cpm (mean cpm of antigen-stimulated cultures—mean cpm of control cultures). Standard deviations of the mean cpm of triplicate cultures were consistently below 10%.
To analyze and summarize the results of 135 assays performed in the 32 HCV patients, we have chosen to consider the response of an individual patient to a particular antigen preparation (peptide pools 1 to 9, NS1-5*, NS1-7* or NS3 protein) as significant when it induces SI's 3 in at least half of the assays performed. The results shown in Table 4 have been obtained using this scoring method. […] The start of the Interferon therapy serves as the reference point, week 0. None of the patients responded to all the antigens. PBMC's from 13 of 18 (72%) clinical responders and 12 of 14 (85%) non-responders proliferated in response to at least one antigen preparation. All but one antigen preparation, peptide pool 8, induced a proliferative response in at least one subject. The most frequent responses were to peptide pools 2 and 3. Whereas both interferon-responders and non-responders proliferated equally well to peptide pool 2 (56% and 57%, respectively), non-responders reacted less well to peptide pool 3 (29% or 4 of 14) than responders (44% or 8 of 18). […] Clinical non-responders to interferon therapy also reacted more frequently (57 or 8 of 14) upon stimulation with the NS3 protein than responders (24% or 4 of 17). However, none of these differences in proliferative response rates to peptide pools 3, 5 and 9 or to NS3 protein reached statistical significance ([…] in ^2-test). […] Indeed, 8 of 17 responders recognized one or both peptides while none of the non-responders did so. A summary of the results of all these proliferation assays is provided in FIG. 2, in which the response rates of the HCV patients as well as 18 healthy control subjects towards the 12 antigen preparations. Indeed, to establish the relevance of the proliferative responses observed in HCV patients, PBMC's from 18 healthy control subjects were stimulated with the same antigen preparations. Overall, 27 assays were performed: a single assay in 10 subjects, two in 7 volunteers and 3 in one individual. In 12 control subjects none of the antigens induced a proliferative response. […]

The mark [3] stands for this setting: patient 626, αIFN responder (R), week 14 of αIFN therapy.
Where [4] appears, read: patient 627, αIFN non-responder (NR), week 54 of αIFN therapy.
The mark [5] stands for this setting: patient 636, αIFN responder (R), week 28 of αIFN therapy.
[6] abbreviates: patient 637, αIFN non-responder (NR), week 45 of αIFN therapy.

Turning to “KVIDTLTCGFADLMGYIPLV (hepatitis C virus) [C21]”, in test [1] (both αIFN responders tested), the “LPR in αIFN responders (summary of Table 7)” value is “highest LPR”. The “stimulation index (SI), T-cell recognition” value (“stimulation index (SI)” below) in test [1] (setting [3]) was 3.3; in test [1] (setting [4]), 3.6; in test [1] (setting [5]), “— (Only SI equal or greater than 3 are shown.)”; in test [1] (setting [6]), “— (Only SI equal or greater than 3 are shown.)”. For the same sequence, in test [1] (patient 632, pools 8 assays, single peptides 4 assays), the “lymphoproliferative response (LPR) to peptide pools and single peptides” value is given as “+ (significant when it induces SI's 3 in at least half of the assays performed)”. Moreover, in test [1] (two αIFN non-responders), the “LPR in αIFN non-responders (summary of Table 7)” value was “high PLR”. The “number of control subjects that recognized the single peptide” value (from here on “number”) in test [2] worked out at 1. Also, in test [2], the “share of control subjects that recognized the single peptide” value (“share” for short) turned out to be 6%.
Turning to LLSCLTVPASAYQVRNSTGL [C31], the “stimulation index (SI)” value is “— (Only SI equal or greater than 3 are shown.)” in test [1] (patient 620, αIFN non-responder (NR), week 20 of αIFN therapy); “— (Only SI equal or greater than 3 are shown.)” in test [1] (setting [3]); “— (Only SI equal or greater than 3 are shown.)” in test [1] (setting [4]); “— (Only SI equal or greater than 3 are shown.)” in test [1] (setting [5]); “— (Only SI equal or greater than 3 are shown.)” in test [1] (setting [6]). The “lymphoproliferative response (LPR) to peptide pools and single peptides” value in test [1] (patient 639, pools 4 assays, single peptides 2 assays) was “+ (significant when it induces SI's 3 in at least half of the assays performed)”. Also, the “number” value in test [2] stood at 1. Also, the “share” value in test [2] stood at 6%.
Regarding “LLSPRGSRPSWGPTDPRRRS (hepatitis C virus) [C17]”, the “stimulation index (SI)” value in test [1] (setting [3]), in test [1] (setting [4]), in test [1] (setting [5]) and in test [1] (setting [6]) was “— (Only SI equal or greater than 3 are shown.)” each time. In test [2], the “number” value was determined as 2. Also, in test [2], the “share” value is reported as 12%.

These data come from patent US6555114B1, “Immunodominant human T-cell epitopes of hepatitis C virus” (Innogenetics N.V., priority 1993, dated 2003).
